pIC50: −log10 of the molar value. Counter-ions that a name gives are not always drawn. Like-named read-outs stand apart in the source and are kept apart here.

From patent US20210330611A1, “THERAPY FOR NEUROLOGICAL DISEASES/DISORDERS” (priority 2020, published 2021) come the findings set out here.

Series [1] relates to fibrin-induced microglia activation. The experiment in a line: Image-based assay of fibrin-induced microglia activation (HTS and dose response). The settings on record: for pIC50 / IC50 / inhibition at 10 µM: Rattus norvegicus, Microglia; for IC50: read-out: Fibrin IC50 (uM) (Suppl. Table 7); for inhibition at 10 µM: primary microglia HTS, read-out: Fibrin % inhibition. The series is classed as cell-based, rat.

Series [2] has as its system LPS-induced microglia activation. The series is described as follows: Image-based assay of LPS-induced microglia activation (HTS and dose response). The series is classed as cell-based, rat. Particulars: Rattus norvegicus, Microglia; for inhibition at 10 µM: primary microglia HTS, read-out: LPS % inhibition; for IC50: read-out: LPS IC50 (uM) (Suppl. Table 7).
Series [3] has as its system fibrin- and LPS-induced microglia activation. The series is described as follows: cells. The format is cell-based, rat. The settings on record: for inhibition at 10 µM: Rattus norvegicus.
Series [4] can be described thus: in vitro. The settings on record: rat, Cell Toxicity IC50 (uM) [cFib assay].
Series [5] is described as follows: in vitro. The settings on record: rat.
Series [6] relates to primary rat microglia. The series is described as follows: Cell toxicity (dead cells, size <150 μm2) in LPS assay. Particulars: for LPS % cell toxicity: primary microglia HTS, LPS stimulation, decreased size (<150 μm^2) as marker of toxicity; for IC50: read-out: Cell Toxicity IC50 (uM) [LPS assay], LPS assay.
In series [7] the test system is primary rat microglia. The series is described as follows: Cell toxicity (dead cells, size <150 μm2) in coated fibrin (cFib) assay.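 On Fibrin % cell toxicity: share of dead cells sized under 150 µm2 at 10 µM in fibrin-stimulated microglia HTS.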 The settings on record: for Fibrin % cell toxicity: primary microglia HTS, fibrin stimulation, decreased size (<150 μm^2) as marker of toxicity.
[8] abbreviates: 48 h, Table 1, dose response 0.001-20 μM, triplicates, primary rat microglia, 48 h, read-out: Fibrin IC50.
[9] abbreviates: dose response, fibrin-induced microglia activation, read-out: Fibrin IC50.
Setting [10] is: fibrin-induced microglia activation, dose response.
[11] abbreviates: fibrin stimulation, increased cell size (>800 μm^2) as marker of activation.
[12] abbreviates: 48 h, Table 1, dose response 0.001-20 μM, triplicates, primary rat microglia, 48 h, read-out: LPS IC50.
Setting [13] is: 48 h, LPS stimulation, increased cell size (>800 μm^2) as marker of activation.
The mark [14] stands for this setting: LPS-induced microglia activation, dose response.
Setting [15] is: dose response, LPS-induced microglia activation, read-out: LPS IC50.
[16] abbreviates: HTS of 1907 compounds, quadrant by fibrin and LPS inhibition.
The mark [17] stands for this setting: Microglia, HTS hit classification, read-out: Hit.
[18] abbreviates: hit classification in microglia HTS, read-out: Cherry-picked Hit (Suppl. Table 7).
The mark [19] stands for this setting: quadrant by fibrin and LPS inhibition in HTS of 1907 compounds.
The mark [20] stands for this setting: Microglia, Table 3, read-out: Cherry-picked Hit (Suppl. Table 7).

`CN(C)CCc1c[nH]c2ccc(CS(=O)(=O)N3CCCC3)cc12` [Almotriptan, reference compound]: the pIC50 (in series [1] (setting [8]); in series [1] (setting [9]); in series [2] (setting [12]); in series [2] (setting [15]); in the series “in vitro [5]”) was < 4.70 throughout. In addition, the IC50 (in series [1] (setting [10]); in series [2] (setting [14]); in “in vitro [4]” (cFib assay)) was > 20 µM each time. In addition, the inhibition at 10 µM in series [1] (setting [11]) was 101%; in series [2] (setting [13]), 85%; in series [3] (setting [17]), > 50%; in series [3] (setting [18]) it was > 50%. Moreover, the “Quadrant (FIG. 5b)” value in series [3] (setting [16]) is “Q2”; in series [3] (Table 1, screen at 10 μM), “Q2”; in series [3] (setting [19]), “Q2”. Also, the “LPS % cell toxicity” value in the series with primary rat microglia [6] amounted to 1%. In the series on primary rat microglia [7], the “Fibrin % cell toxicity” value worked out at 2%.
`O=C(OOC(=O)c1ccccc1)c1ccccc1` [Benzoyl peroxide, reference compound]: the pIC50 is 4.70 in series [1] (setting [8]); 4.70 in series [1] (setting [9]); < 4.70 in series [2] (setting [12]); < 4.70 in series [2] (setting [15]); < 4.70 in the series “in vitro [5]”. In addition, the IC50 in series [1] (setting [10]) was 20 µM; in series [2] (setting [14]) it was > 20 µM; in “in vitro [4]” (cFib assay), > 20 µM. In addition, the inhibition at 10 µM in series [1] (setting [11]) was 75%; in series [2] (setting [13]) it was 82%; in series [3] (setting [17]), > 50%; in series [3] (setting [18]) it was > 50%. The “Quadrant (FIG. 5b)” value in series [3] (setting [16]) is given as “Q2”; in series [3] (Table 1, screen at 10 μM), “Q2”; in series [3] (setting [19]), “Q2”. The “LPS % cell toxicity” value in the series with primary rat microglia [6] was found to be 2%. Also, in the series on primary rat microglia [7], the “Fibrin % cell toxicity” value amounted to 1%.
In the case of `CN(C)CCCOc1nn(Cc2ccccc2)c2ccccc12` [Benzydamine hydrochloride, reference compound], the pIC50 was 5.22 in series [1] (setting [8]); 5.22 in series [1] (setting [9]); 5.52 in series [2] (setting [12]); 5.52 in series [2] (setting [15]); 5.10 in “in vitro [5]”. In addition, the IC50 turned out to be 6 µM in series [1] (setting [10]), 3 µM in series [2] (setting [14]) and 20 µM in “in vitro [4]” (cFib assay). Besides, the inhibition at 10 µM in series [1] (setting [11]) is 75%; in series [2] (setting [13]), 102%; in series [3] (setting [17]), > 50%; in series [3] (setting [18]), > 50%. The “Quadrant (FIG. 5b)” value was “Q2” in series [3] (setting [16]); “Q2” in series [3] (Table 1, screen at 10 μM); “Q2” in series [3] (setting [19]). Besides, in the series on primary rat microglia [6], the “LPS % cell toxicity” value stood at 6%. In the series with primary rat microglia [7], the “Fibrin % cell toxicity” value was determined as 1%.
Consider `C[C@@H]1C[C@H]2[C@@H]3CCC4=CC(=O)C=C[C@]4(C)[C@@]3(F)[C@@H](O)C[C@]2(C)[C@@]1(O)C(=O)CO` [Dexamethasone, reference compound], for which the pIC50 in series [1] (setting [8]) was 4.82; in series [1] (Table 7, read-out: fib_IC50), 8.70; in series [1] (setting [9]), 4.82; in series [2] (setting [12]) it was < 4.70; in series [2] (Table 7, read-out: LPS_IC50), 8.70; in series [2] (setting [15]), < 4.70. In addition, the pIC50 in the series “in vitro [5]” is < 4.70. The IC50 is 15 µM in series [1] (setting [10]), > 20 µM in series [2] (setting [14]) and > 20 µM in “in vitro [4]” (cFib assay). Also, the “Quadrant (FIG. 5b)” value in series [3] (setting [16]) is “Q3”; in series [3] (Table 1, screen at 10 μM) it was “Q3”; in series [3] (Table 2, screen at 10 μM), “Q3”. Besides, the inhibition at 10 µM in series [3] (setting [17]) and in series [3] (setting [18]) was > 50% throughout.
With `CC1(C)O[C@@H]2C[C@H]3[C@@H]4C[C@H](F)C5=CC(=O)C=C[C@]5(C)[C@H]4[C@@H](O)C[C@]3(C)[C@]2(C(=O)CO)O1` [Flunisolide, reference compound], the pIC50 in series [1] (setting [8]) is > 9.00; in series [1] (setting [9]), > 9.00; in series [2] (setting [12]), > 9.00; in series [2] (setting [15]), > 9.00; in “in vitro [5]”, < 4.70. Also, the IC50 in series [1] (setting [10]) was < 0.001 µM; in series [2] (setting [14]), < 0.001 µM; in “in vitro [4]” (cFib assay), > 20 µM. Further, the inhibition at 10 µM was 104% in series [1] (setting [11]), 101% in series [2] (setting [13]), > 50% in series [3] (setting [17]) and > 50% in series [3] (setting [18]). The “Quadrant (FIG. 5b)” value in series [3] (setting [16]) is recorded as “Q2”; in series [3] (Table 1, screen at 10 μM), “Q2”; in series [3] (setting [19]) it was “Q2”.
Regarding `CC[C@@]1(O)C(=O)OCc2c1cc1n(c2=O)Cc2cc3c([N+](=O)[O-])cccc3nc2-1` [Rubitecan, reference compound], the pIC50 in series [1] (setting [8]) was 5.70; in series [1] (setting [9]) it was 5.70; in series [2] (setting [12]) it was 5.05; in series [2] (setting [15]) it was 5.05; in the series “in vitro [5]”, < 4.70. Further, the IC50 in series [1] (Table 3) is 2 µM; in series [1] (setting [10]) it was 2 µM; in series [2] (setting [14]) it was 9 µM; in series [2] (Table 3), 9 µM; in “in vitro [4]” (Table 3) it was > 20 µM; in the series “in vitro [4]” (cFib assay) it was > 20 µM. In the series on primary rat microglia [6], the IC50 is > 20 µM. The inhibition at 10 µM was 73% in series [1] (setting [11]), 30% in series [2] (setting [13]), > 50% in series [3] (setting [20]) and > 50% in series [3] (setting [17]). Moreover, the “Quadrant (FIG. 5b)” value in series [3] (setting [16]) was “Q3”; in series [3] (Table 1, screen at 10 μM), “Q3”; in series [3] (Table 3, screen at 10 μM), “Q3”; in series [3] (setting [19]) it was “Q3”.
For the molecule `CC[C@@H](C(=O)[C@@H](C)[C@@H](O)[C@H](C)[C@@H]1O[C@@H]([C@@H](CC)C(=O)O)CC[C@@H]1C)[C@H]1O[C@]2(C=C[C@@H](O)[C@]3(CC[C@@](C)([C@H]4CC[C@](O)(CC)[C@H](C)O4)O3)O2)[C@H](C)C[C@@H]1C` [Salinomycin, sodium, reference compound], the pIC50 in series [1] (setting [8]), in series [1] (setting [9]), in series [2] (setting [12]) and in series [2] (setting [15]) was 5.70 each time. Moreover, the IC50 is 2 µM in series [1] (setting [10]); 2 µM in series [2] (setting [14]); > 20 µM in the series “in vitro [4]” (cFib assay); 3.86 µM in the series on primary rat microglia [7] (Rattus norvegicus, Microglia, read-out: dead_IC50 (uM), Table 7, fibrin or LPS assay not specified). The inhibition at 10 µM was 100% in series [1] (setting [11]), 101% in series [2] (setting [13]), > 50% in series [3] (setting [17]) and > 50% in series [3] (setting [18]). The “Quadrant (FIG. 5b)” value is “Q2” in series [3] (setting [16]); “Q2” in series [3] (Table 1, screen at 10 μM); “Q2” in series [3] (setting [19]). In addition, in series [3] (Table 7, fib = fibrin, LPS, tox = toxicity, sodium), the Activity result is “fib/LPS”. Also, the “LPS % cell toxicity” value with primary rat microglia [6] was 1%. Also, the “Fibrin % cell toxicity” value with primary rat microglia [7] is on record as 3%.
For `C[C@]12C=CC(=O)C=C1CC[C@H]1[C@@H]3C[C@@H](O)[C@](O)(C(=O)CO)[C@@]3(C)C[C@H](O)[C@@]12F` [Triamcinolone, reference compound], the “Fibrin Selectivity” value in series [1] stood at 10. The “Fibrin Selectivity (LOG10)” value in series [1] is 1.00. Also, the pIC50 in series [1] (setting [8]) is 7.40; in series [1] (setting [9]), 7.40; in series [2] (setting [12]) it was 6.40; in series [2] (setting [15]), 6.40; in “in vitro [5]” it was < 4.70. Besides, the IC50 is 0.04 µM in series [1] (Table 3); 0.04 µM in series [1] (setting [10]); 0.4 µM in series [2] (setting [14]); 0.4 µM in series [2] (Table 3); > 20 µM in “in vitro [4]” (Table 3); > 20 µM in “in vitro [4]” (cFib assay). In the series on primary rat microglia [6], the IC50 was > 20 µM. The inhibition at 10 µM in series [1] (10 μM, fibrin-stimulated, cell size >800 μm^2 as marker of activation) is -2%; in series [1] (setting [11]) it was 107%; in series [2] (setting [13]), 99%; in series [2] (10 μM, LPS-stimulated, cell size >800 μm^2 as marker of activation) it was -14%; in series [3] (setting [20]) it was > 50%; in series [3] (setting [17]), > 50%. The “Quadrant (FIG. 5b)” value in series [3] (Table 1, screen at 10 μM) was “Q2”; in series [3] (Table 3, screen at 10 μM), “Q2”; in series [3] (setting [19]) it was “Q2”.
